Source: patent US20250134870A1, “PATHWAY MODULATOR, PHARMACEUTICAL COMPOSITION HAVING SAME, USE THEREOF, AND THERAPEUTIC METHOD USING SAME” (Jiangsu Yahong Meditech Co., Ltd., priority 2021, published 2025)

How the values were obtained:
[1] = test system: dextran sulfate sodium (DSS)-induced colitis; assay: DSS-induced colitis in mice: body weight, DAI score, colon density (Examples 1, 3); assay type: in vivo, C57BL/6J mice
Protocol: 8-10 week old female C57BL/6J mice purchased from Charles River Laboratories were used. The mice were housed in a room at constant temperature (20+2° C.) (5 mice per cage) with a 12-hour light-dark cycle. All protocols were approved by the Institutional Animal Care and Use Committee of WuXi AppTec. These mice were adapted to the housing conditions at the animal experiment center of WuXi AppTec for at least three days prior to the experiment. […] At the experimental endpoint (see hereinafter), mice were euthanized and endpoint samples were obtained. Mice in the normal group were not given 3% DSS aqueous solution to induce colitis and were free to drink blank water. […] The animal body weight and DAI score were assessed under double-blind conditions, that is, the researchers collected the body weight data of mice and observed and scored the stool characteristics and blood stools every day, without knowing the group and dosing regimen. The DAI score was the sum of the weight loss score, stool score and bleeding score. […] The data were analyzed by analysis of variance, specifically by using the following process: using Graph Pad Prism 6.0 software to carry out post-hoc Dunnett's multiple comparison test. […] Data were expressed as mean±S.E.M. The experimental endpoint was 24 hours after administration on Day 8 for the positive drug control group and the Test group 1 #to Test group 7 #of Example 1; the experimental endpoint of the normal group and the solvent group was the same as that of the positive drug control group and Test group 1 #to Test group 7 #.

peripheral blood cells = assay: Bleomycin-induced skin fibrosis in mice: blood routine test of peripheral blood (Example 5); assay type: in vivo, male C57BL/6 mice
Protocol: Animals were weighed at the experimental endpoints and the body weight was recorded to calculate the volume of administration. 6 h after dosing, firstly, whole blood was collected from the orbital venous plexus of mice and subjected to blood routine test using an automated Hematology analyzer (Sysmex XS-800i). The specific test steps were as follows: the blood sample in the test tube was thoroughly mixed before testing; the sample was placed under the sampling needle, then injected by pressing the start button, and removed after indicator light of the instrument was off; the instrument started to automatically test the sample and output the results.

[2] = test system: NMO-IgG-induced neuromyelitis optica; assay: NMO-IgG-induced neuromyelitis optica (NMO) in mice: AQP4, GFAP, IBA1, CD45 (Example 7); assay type: in vivo, C57 mice; conditions: 50 and 100 mg/kg PO QD × 10 days
Protocol: 1) C57 female mice (6 to 8 weeks old) were anesthetized with intraperitoneal injection of 5% chloral hydrate (70 μL/10 g).
2) Fur of the top of head was removed to expose the scalp. The mouse head was fixed on the brain stereotaxic apparatus, keeping the top of the skull horizontal. The scalp was disinfected with iodophor.
3) The scalp was cut lengthwise for about 0.5 cm to search for the anterior and posterior fontanelle areas. The stereotaxic caliper was rotated to move the needle tip of trace syringe to the anterior and posterior fontanelle areas, and the mouse skull was kept horizontal by observing the distance from Bregma and Lambda to the needle tip. After horizontal adjustment, the needle tip was moved to Bregma and then moved 2 mm to the right to reach the position.
4) The position on the surface of the mouse skull was marked and a hole was drilled at this point with a skull drill. During drilling, blood vessels should be avoided and drilling should be continued carefully to avoid damaging the duramater and brain tissue.
5) The trace syringe was vertically introduced into the mouse brain tissue using the stereotaxic apparatus with a vertical needle depth of 3 mm. The syringe was kept in place and maintained for 5 min.
6) The syringe pump was turned on, the Infuse Only mode was selected, and the solution (2 μL NMO-IgG+3 μL human complement+5 μL PBS/drug, mixed and pipetted well in advance, and placed on ice) was injected at a speed of […].
7) After the injection was completed, the syringe was maintained for 10 min. The syringe was slowly pulled upward by rotating the caliper, and maintained for 5 min after moving 1 mm upward, until the syringe was completely pulled out. The skin was sutured and disinfected again with iodophor.
Dosing started 3 days before model establishment and lasted until 7 days after model establishment, for 10 consecutive days.
On Day 8 after model establishment (i.e., the day after the last dose), the experimental mice were euthanized and brain tissue was collected for frozen sections. Then, the immune response area of astrocyte markers in each group of mice was determined and evaluated (see the reference Ye Gong et al., Journal of Neuroinflammation, 17 (1). doi:10.1186/s12974-020-01874-6 for experimental methods).

[3] = test system: 2,4-dinitrobenzenesulfonic acid (DNBS)-induced colitis; assay: DNBS-induced colitis in rats: pathological score of colon tissue (H&E); assay type: in vivo, Wistar rats
Excerpt: The proximal, ulcer (corresponding sites can be taken, if there was no ulcer) and distal parts of the colon tissue fixed by neutral buffered formalin were embedded with paraffin, sectioned (thickness 5 μm), and histopathological score was given by H&E staining.

[4] = test system: dextran sulfate sodium (DSS)-induced colitis; assay: DSS-induced colitis in mice, 3.1% DSS: body weight change and DAI (Example 11); assay type: in vivo, C57BL/6 mice; conditions: 50 mg/kg, QD
Excerpt: The experimental mice were housed in an SPF grade animal room for three days for adaptation, and randomly divided into 7 groups (6 model groups and 1 control group) of 10 mice in each group. Dosing of mice started on Day 0 and ended on Day 7.
The mouse enteritis model of this Example was established by DSS induction: mice in the model group were provided with a 3.1% DSS (dextran sulfate sodium, molecular weight 36,000-50,000) aqueous solution from Day 0 to Day 7, and the DSS aqueous solution was replaced with freshly prepared solution every day to prevent degradation. Mice in the normal control group were provided with normal water. The experimental period was 9 days, and the mice were euthanized and samples were collected at the experimental endpoint.
The DAI score was assessed daily. The DAI score consisted of 3 parts: body weight change, stool characteristics, and hematochezia (or occult blood) score, and the specific scoring criteria were as shown in Table 49. The DAI scoring of all mice was done by the same staff throughout the experiment.
Mice were euthanized at the experimental endpoint. The colon of mice was dissected, and photograph was taken, the length was measured, and the contents were removed before weighing.
The data were expressed as mean±standard error (X±s). Body weight change and disease activity score were statistically analyzed by two-way ANOVA and comparison between groups were performed by Dunnett's test. Other data were statistically analyzed by one-way ANOVA and comparison between groups were performed by Dunnett's test. All analyses were performed using GraphPad Prism software. * P<0.05, ** P<0.01, *** P<0.005, **** P<0.0001 vs. solvent group.

[5] = 100 mg/kg PO QD, 28 days (Test group 3#) vs solvent group
[6] = mean, G5 Test group 2#, 10 mg/kg PO QD × 7

How did the “Body weight on Day 7, g” value ([1]; 30 mg/kg PO QD × 8 days) turn out when `NCc1c[nH]c(=S)n1[C@H]1CCc2c(F)cc(F)cc2C1` [Nepicastat] was run?
The value was 19.71 g.

What about the “Body weight on Day 8, g” value ([1]; 30 mg/kg PO QD × 8 days) of the same compound?
Its value is 18.88 g.

What about the “Body weight on Day 8/initial body weight, %” value ([1]; 30 mg/kg PO QD × 8 days) of the same compound?
Its value is 90.68%.

And the “DAI score on Day 8” value ([1]; 30 mg/kg PO QD × 8 days)?
The value was 5.30.

And the “severity of DSS-induced colitis and disease activity” value ([1]; Nepicastat 30, Etamicastat 100, Zamicastat 100 mg/kg PO QD × 8 days (Test groups 1#, 4#, 7#) vs solvent group)?
Its value is “ameliorated the severity of DSS-induced colitis and reduced disease activity”.

And the “lymphocytes in peripheral blood” value (peripheral blood cells; [5])?
The value was “significant differences in reducing”.

And the “monocytes in peripheral blood” value (peripheral blood cells; [5])?
Its value is “significant differences in reducing”.

What about the “neutrophils in peripheral blood” value (peripheral blood cells; [5]) of the same compound?
Its value is “significant differences in reducing”.

What about the “number of increased inflammatory cells in peripheral blood after bleomycin stimulation” value (peripheral blood cells; 50 and 100 mg/kg PO QD, 28 days (Test groups 2#, 3#)) of the same compound?
Its value is “reduce the number of increased inflammatory cells in peripheral blood”.

And the “effect on NMO-IgG-induced neuromyelitis optica in mice” value [2]?
The value was “certain inhibitory effect”.

And the “immune parameter CD45” value [2]?
Its value is “no significant effect”.

And the “immune parameter IBA1” value [2]?
Its value is “no significant effect”.

What about the “lesion ratio of AQP4” value ([2]; vs control group) of the same compound?
The value was “significantly reduce the lesion ratio”.

And the “lesion ratio of GFAP” value ([2]; vs control group)?
Its value is “significantly reduce the lesion ratio”.

And the “total score of colon tissue injury” value ([3]; 10 mg/kg (Test group 2#))?
The value was “significantly reduce”.

What about the “Pathological score, Distal end, Damage” value [3, 6] of the same compound?
The value was 0.93.

What about the “Pathological score, Distal end, Inflammation” value [3, 6] of the same compound?
The value was 2.07.

And the “Pathological score, Proximal end, Damage” value [3, 6]?
Its value is 0.47.

And the “Pathological score, Proximal end, Inflammation” value [3, 6]?
Its value is 1.60.

And the “Pathological score, Total score, Damage” value [3, 6]?
The value was 3.53.

What about the “Pathological score, Total score, Inflammation” value [3, 6] of the same compound?
Its value is 6.07.

What about the “Pathological score, Ulcer end, Damage” value [3, 6] of the same compound?
The value was 2.13.

And the “Pathological score, Ulcer end, Inflammation” value [3, 6]?
The value was 2.40.

What about the “symptoms caused by DSS-induced colitis (body weight loss, diarrhea, hematochezia)” value [4] of the same compound?
Its value is “effectively alleviated the symptoms of body weight loss, diarrhea and hematochezia”.

What about the “DSS-induced body weight loss” value ([4]; vs solvent group) of the same compound?
The value was “effectively alleviated DSS-induced body weight loss”.

And the “disease activity score (DAI)” value ([4]; vs solvent group)?
Its value is “significantly lower than that in the solvent group”.
